From ChEMBL document CHEMBL1201862, “PubChem BioAssay data set” (2004)
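Exposure lasted 48 hours, with cells grown in 96-well plates and compounds tested at five concentrations. GI50 = concentration required for 50% inhibition of growth.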 Activity calls are given as the source filed them. No stated cut-off is given here; in the data, active = GI50 up to about 1.1 µM and inactive = higher.

Assays:
Assay in all cases: NCI anticancer screen, dose series, 48 h
HCT-15 = tested on: HCT-15
HCC 2998 = tested on: HCC 2998
CCRF-CEM = tested on: CCRF-CEM
MOLT-4 = tested on: MOLT-4
EKVX = tested on: EKVX
HOP-62 = tested on: HOP-62
HL-60 = tested on: HL-60
A498 = tested on: A498
SF-295 = tested on: SF-295
KM12 = tested on: KM12
SK-OV-3 = tested on: SK-OV-3
OVCAR-5 = tested on: OVCAR-5
SN12C = tested on: SN12C
UO-31 = tested on: UO-31
SF-539 = tested on: SF-539
SR = tested on: SR
SNB-75 = tested on: SNB-75
A549 = tested on: A549
786-0 = tested on: 786-0
SK-MEL-5 = tested on: SK-MEL-5
UACC-257 = tested on: UACC-257
OVCAR-3 = tested on: OVCAR-3
HOP-92 = tested on: HOP-92
CAKI-1 = tested on: CAKI-1
M14 = tested on: M14
OVCAR-8 = tested on: OVCAR-8
RXF 393 = tested on: RXF 393
K562 = tested on: K562
SK-MEL-2 = tested on: SK-MEL-2
IGROV-1 = tested on: IGROV-1
SW-620 = tested on: SW-620
ACHN = tested on: ACHN
HT-29 = tested on: HT-29
HCT-116 = tested on: HCT-116
U-251 = tested on: U-251
LOX IMVI = tested on: LOX IMVI
NCI-H23 = tested on: NCI-H23
SNB-78 = tested on: SNB-78
NCI-H226 = tested on: NCI-H226
NCI-H522 = tested on: NCI-H522
NCI-H460 = tested on: NCI-H460
SNB-19 = tested on: SNB-19
TK-10 = tested on: TK-10
SK-MEL-28 = tested on: SK-MEL-28
UACC-62 = tested on: UACC-62
KM-20L2 = tested on: KM-20L2
SF-268 = tested on: SF-268
MCF7 = tested on: MCF7
M19-MEL = tested on: M19-MEL
RPMI-8226 = tested on: RPMI-8226
COLO 205 = tested on: COLO 205
Hs-578T = tested on: Hs-578T
OVCAR-4 = tested on: OVCAR-4
PC-3 = tested on: PC-3
MDA-N = tested on: MDA-N
Malme-3M = tested on: Malme-3M
MDA-MB-435 = tested on: MDA-MB-435
MDA-MB-231 = tested on: MDA-MB-231
NCI/ADR-RES = tested on: NCI/ADR-RES
BT-549 = tested on: BT-549
T47D = tested on: T47D
DU-145 = tested on: DU-145

COC1=CC23C=CC1[C@@H](c1ccccc1)C2=C(C)C(=O)N3C(=O)NC1CCCCC1 (some centres undefined)
GI50 (HCT-15): 5.11 µM
GI50 (HCC 2998): 21.6 µM (inactive)
GI50 (CCRF-CEM): 25.7 µM (inactive)
GI50 (MOLT-4): 18 µM (inactive)
GI50 (EKVX): 28.7 µM (inactive)
GI50 (HOP-62): 21.5 µM (inactive)
GI50 (HL-60): 21 µM (inactive)
GI50 (A498): 25.6 µM (inactive)
GI50 (SF-295): 22.4 µM (inactive)
GI50 (KM12): 31.3 µM (inactive)
GI50 (SK-OV-3): 39 µM (inactive)
GI50 (OVCAR-5): 23.7 µM (inactive)
GI50 (SN12C): > 10 µM (inactive)
GI50 (UO-31): 20.7 µM (inactive)
GI50 (SF-539): 19.4 µM (inactive)
GI50 (SR): 20.2 µM (inactive)
GI50 (SNB-75): 3.78 µM (inactive)
GI50 (A549): 24.7 µM (inactive)
GI50 (786-0): 15.5 µM (inactive)
GI50 (SK-MEL-5): 14.9 µM (inactive)
GI50 (UACC-257): 26.6 µM (inactive)
GI50 (OVCAR-3): 24.2 µM (inactive)
GI50 (HOP-92): 19 µM (inactive)
GI50 (CAKI-1): 16.9 µM (inactive)
GI50 (M14): 19 µM (inactive)
GI50 (OVCAR-8): 25.3 µM (inactive)
GI50 (RXF 393): 3.45 µM (inactive)
GI50 (K562): 28.2 µM (inactive)
GI50 (SK-MEL-2): 17.5 µM (inactive)
GI50 (IGROV-1): 61.2 µM (inactive)
GI50 (SW-620): 19.5 µM (inactive)
GI50 (ACHN): 30.9 µM (inactive)
GI50 (HT-29): 19.7 µM (inactive)
GI50 (HCT-116): 15 µM (inactive)
GI50 (U-251): 16.5 µM (inactive)
GI50 (LOX IMVI): 17 µM (inactive)
GI50 (NCI-H23): 18.5 µM (inactive)
GI50 (SNB-78): 26.4 µM (inactive)
GI50 (NCI-H226): 20.4 µM (inactive)
GI50 (NCI-H522): 18.9 µM (inactive)
GI50 (NCI-H460): 20.1 µM (inactive)
GI50 (SNB-19): 31.8 µM (inactive)
GI50 (TK-10): 26.7 µM (inactive)
GI50 (SK-MEL-28): 18.5 µM (inactive)
GI50 (UACC-62): 26.5 µM (inactive)
GI50 (KM-20L2): 22.2 µM (inactive)
GI50 (SF-268): 15.8 µM (inactive)

CC1OC(O[C@@H]2C=C3CC[C@@H]4[C@H](CC[C@]5(C)[C@@H](c6ccc(=O)oc6)CC[C@]45O)[C@@]3(C)CC2)C(O)C(O)C1O (some centres undefined)
GI50 (HCT-15): 0.0475 µM
GI50 (CCRF-CEM): 0.03 µM (active)
GI50 (A498): 0.03 µM (active)
GI50 (KM12): 0.03 µM (active)
GI50 (OVCAR-5): 0.03 µM (active)
GI50 (MCF7): 0.03 µM (active)
GI50 (M19-MEL): 0.03 µM (active)
GI50 (UACC-257): 0.03 µM (active)
GI50 (OVCAR-8): 0.03 µM (active)
GI50 (K562): 0.03 µM (active)
GI50 (IGROV-1): 0.03 µM (active)
GI50 (SW-620): 0.03 µM (active)
GI50 (ACHN): 0.00179 µM (active)
GI50 (HT-29): 0.03 µM (active)
GI50 (U-251): 0.03 µM (active)
GI50 (LOX IMVI): 0.03 µM (active)
GI50 (NCI-H23): 0.0475 µM (active)
GI50 (RPMI-8226): 0.03 µM (active)
GI50 (SNB-19): 0.03 µM (active)
GI50 (COLO 205): 0.03 µM (active)
GI50 (Hs-578T): 0.00119 µM (active)
GI50 (SK-MEL-28): 0.03 µM (active)
GI50 (KM-20L2): 0.03 µM (active)

Cc1noc2nnn(-c3ccc(Cl)cc3)c(=O)c12
GI50 (HCT-15): 2.31 µM
GI50 (HCC 2998): 2.15 µM (inactive)
GI50 (CCRF-CEM): 0.355 µM (active)
GI50 (MOLT-4): 0.364 µM (active)
GI50 (EKVX): 7.11 µM (inactive)
GI50 (HOP-62): 12.8 µM (inactive)
GI50 (HL-60): 1.39 µM (inactive)
GI50 (A498): 13.5 µM (inactive)
GI50 (SF-295): 12.3 µM (inactive)
GI50 (KM12): 11.7 µM (inactive)
GI50 (SK-OV-3): 5.52 µM (inactive)
GI50 (OVCAR-5): 7.23 µM (inactive)
GI50 (SN12C): 3.89 µM (inactive)
GI50 (UO-31): 3.61 µM (inactive)
GI50 (SF-539): 0.223 µM (active)
GI50 (OVCAR-4): 3.18 µM (inactive)
GI50 (SR): 1.21 µM (inactive)
GI50 (PC-3): 3.71 µM (inactive)
GI50 (SNB-75): 1.1 µM (active)
GI50 (A549): 12.1 µM (inactive)
GI50 (MCF7): 2.67 µM (inactive)
GI50 (MDA-N): 6.01 µM (inactive)
GI50 (Malme-3M): 11.9 µM (inactive)
GI50 (MDA-MB-435): 2.95 µM (inactive)
GI50 (MDA-MB-231): 8.95 µM (inactive)
GI50 (NCI/ADR-RES): 4.17 µM (inactive)
GI50 (786-0): 2.45 µM (inactive)
GI50 (SK-MEL-5): 3.82 µM (inactive)
GI50 (UACC-257): 7.5 µM (inactive)
GI50 (OVCAR-3): 2.36 µM (inactive)
GI50 (HOP-92): 6.4 µM (inactive)
GI50 (CAKI-1): 2.05 µM (inactive)
GI50 (M14): 11.8 µM (inactive)
GI50 (OVCAR-8): 2.69 µM (inactive)
GI50 (RXF 393): 0.879 µM (active)
GI50 (K562): 1.3 µM (inactive)
GI50 (SK-MEL-2): 3.24 µM (inactive)
GI50 (IGROV-1): 5.33 µM (inactive)
GI50 (SW-620): 0.67 µM (active)
GI50 (ACHN): 3.59 µM (inactive)
GI50 (HT-29): 4.42 µM (inactive)
GI50 (HCT-116): 2.89 µM (inactive)
GI50 (U-251): 4.92 µM (inactive)
GI50 (LOX IMVI): 2.5 µM (inactive)
GI50 (NCI-H23): 4.75 µM (inactive)
GI50 (BT-549): 3.16 µM (inactive)
GI50 (NCI-H226): 2.61 µM (inactive)
GI50 (NCI-H522): 0.5 µM (active)
GI50 (T47D): 0.614 µM (active)
GI50 (RPMI-8226): 0.36 µM (active)
GI50 (NCI-H460): 6.43 µM (inactive)
GI50 (DU-145): 3.72 µM (inactive)
GI50 (SNB-19): 13.3 µM (inactive)
GI50 (COLO 205): 2.96 µM (inactive)
GI50 (TK-10): 9.06 µM (inactive)
GI50 (Hs-578T): 18.6 µM (inactive)
GI50 (SK-MEL-28): 10.8 µM (inactive)
GI50 (UACC-62): 4.43 µM (inactive)
GI50 (SF-268): 6.98 µM (inactive)
